ChEMBL document CHEMBL4828771, “Discovery and Development of a Potent, Selective, and Orally Bioavailable CHK1 Inhibitor Candidate: 5-((4-((3-Amino-3-methylbutyl)amino)-5-(trifluoromethyl)pyrimidin-2-yl)amino)picolinonitrile” (J Med Chem, 2021)
Calls of active or inactive are those of the source. The calls are words filed in the database; no cut-off is given here.

Columns and labels:
[1] = MRT(0 to infinity) in ICR mouse at 10 mg/kg, po measured after 0.083 to 48 hrs by LC-MS/MS analysis; assay type: ADME, organism-based; conditions: in vivo, time 0.083-48 hrs
[2] = AUCt in ICR mouse at 10 mg/kg, po measured after 0.083 to 48 hrs by LC-MS/MS analysis; assay type: ADME, organism-based; design: route oral, dose 10 mg/kg, time 0.083-48 hrs; conditions: in vivo
[3] = AUC(0 to infinity) in ICR mouse at 10 mg/kg, po measured after 0.083 to 48 hrs by LC-MS/MS analysis; assay type: ADME, organism-based; design: route oral, time lower 0.083 hrs, dose 10 mg/kg, time upper 48 hrs; conditions: in vivo
[4] = target: T1, Serine/threonine-protein kinase Chk1 (Homo sapiens, UniProt O14757); test: Inhibition of CHK1 (unknown origin) incubated for 1 hr in presence of ATP by HTRF assay
T1 sequence (O14757 whole entry): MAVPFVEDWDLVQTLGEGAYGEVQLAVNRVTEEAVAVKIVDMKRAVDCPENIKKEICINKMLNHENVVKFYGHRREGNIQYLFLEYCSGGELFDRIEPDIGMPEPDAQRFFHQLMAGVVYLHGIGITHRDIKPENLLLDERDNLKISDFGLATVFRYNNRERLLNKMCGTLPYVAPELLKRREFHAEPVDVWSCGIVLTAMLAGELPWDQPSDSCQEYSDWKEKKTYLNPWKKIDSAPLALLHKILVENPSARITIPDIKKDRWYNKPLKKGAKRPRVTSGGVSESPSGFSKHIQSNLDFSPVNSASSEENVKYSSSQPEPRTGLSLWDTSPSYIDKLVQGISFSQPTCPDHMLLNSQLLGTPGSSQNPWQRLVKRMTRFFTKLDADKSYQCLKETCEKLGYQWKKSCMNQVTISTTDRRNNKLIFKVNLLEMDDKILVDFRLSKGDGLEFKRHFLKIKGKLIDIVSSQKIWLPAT

MV4-11 [5] = test: Antiproliferation activity against human MV4-11 cells assessed as reduction in cell viability incubated for 72 hrs by MTS assay; assay type: functional, cell-based; conditions: MV4-11, 72 h
Z-138 = test: Antiproliferation activity against human Z138 cells assessed as reduction in cell viability incubated for 72 hrs by MTS assay; assay type: functional, cell-based; conditions: Z-138, 72 h
hERG (KCNH2) = hERG (KCNH2) (Homo sapiens, UniProt Q12809); test: Inhibition of human ERG expressed in HEK293 cells at 10 uM by patch-clamp technique relative to control; assay type: cell-based; conditions: HEK293 cells that express hERG
Chain of hERG (KCNH2) (Q12809 whole entry): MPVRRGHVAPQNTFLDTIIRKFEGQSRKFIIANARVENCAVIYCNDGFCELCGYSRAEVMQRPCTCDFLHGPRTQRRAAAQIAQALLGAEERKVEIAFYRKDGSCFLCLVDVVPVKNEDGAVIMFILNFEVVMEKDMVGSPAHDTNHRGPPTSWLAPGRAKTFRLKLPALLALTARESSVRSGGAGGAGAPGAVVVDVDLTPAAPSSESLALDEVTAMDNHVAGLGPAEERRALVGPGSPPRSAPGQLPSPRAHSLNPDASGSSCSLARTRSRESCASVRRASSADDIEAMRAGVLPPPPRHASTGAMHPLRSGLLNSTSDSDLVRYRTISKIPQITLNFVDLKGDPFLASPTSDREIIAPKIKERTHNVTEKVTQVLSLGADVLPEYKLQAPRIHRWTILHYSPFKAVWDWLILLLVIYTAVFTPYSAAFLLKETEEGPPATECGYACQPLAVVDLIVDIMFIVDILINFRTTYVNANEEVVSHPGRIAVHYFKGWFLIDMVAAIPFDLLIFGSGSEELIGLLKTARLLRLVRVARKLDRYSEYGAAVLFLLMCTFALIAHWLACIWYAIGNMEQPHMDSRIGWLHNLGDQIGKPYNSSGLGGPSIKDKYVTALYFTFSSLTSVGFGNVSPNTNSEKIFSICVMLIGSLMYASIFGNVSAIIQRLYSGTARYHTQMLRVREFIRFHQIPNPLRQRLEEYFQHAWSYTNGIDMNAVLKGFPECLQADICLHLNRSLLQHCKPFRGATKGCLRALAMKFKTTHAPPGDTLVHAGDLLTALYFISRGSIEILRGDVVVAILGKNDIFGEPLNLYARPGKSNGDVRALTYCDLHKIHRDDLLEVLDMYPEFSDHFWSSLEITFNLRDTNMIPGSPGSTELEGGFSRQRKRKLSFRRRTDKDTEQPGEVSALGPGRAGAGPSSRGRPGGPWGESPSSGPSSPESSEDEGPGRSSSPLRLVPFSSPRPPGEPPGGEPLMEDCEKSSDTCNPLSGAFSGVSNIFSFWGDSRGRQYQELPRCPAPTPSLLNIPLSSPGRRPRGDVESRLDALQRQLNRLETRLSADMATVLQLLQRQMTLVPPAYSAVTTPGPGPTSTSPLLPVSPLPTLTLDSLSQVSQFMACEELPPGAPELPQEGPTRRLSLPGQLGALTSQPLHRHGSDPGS

[6] = Half life in ICR mouse at 10 mg/kg, po measured after 0.083 to 48 hrs by LC-MS/MS analysis; assay type: ADME, organism-based; conditions: in vivo, time 0.083-48 hrs
[7] = Tmax in ICR mouse at 10 mg/kg, po measured after 0.083 to 48 hrs by LC-MS/MS analysis; assay type: ADME, organism-based; conditions: in vivo, time 0.083-48 hrs
[8] = Cmax in ICR mouse at 10 mg/kg, po measured after 0.083 to 48 hrs by LC-MS/MS analysis; assay type: ADME, organism-based; design: route oral, time upper 48 hrs, dose 10 mg/kg, time lower 0.083 hrs; conditions: in vivo
[9] = Half life in ICR mouse at 20 mg/kg, po measured after 0.083 to 48 hrs by LC-MS/MS analysis; assay type: ADME, organism-based; conditions: in vivo, time 0.083-48 hrs
[10] = Tmax in ICR mouse at 20 mg/kg, po measured after 0.083 to 48 hrs by LC-MS/MS analysis; assay type: ADME, organism-based; conditions: in vivo, time 0.083-48 hrs
[11] = Cmax in ICR mouse at 20 mg/kg, po measured after 0.083 to 48 hrs by LC-MS/MS analysis; assay type: ADME, organism-based; design: route oral, time upper 48 hrs, time lower 0.083 hrs, dose 20 mg/kg; conditions: in vivo
[12] = AUCt in ICR mouse at 20 mg/kg, po measured after 0.083 to 48 hrs by LC-MS/MS analysis; assay type: ADME, organism-based; design: route oral, dose 20 mg/kg, time 0.083-48 hrs; conditions: in vivo
[13] = AUC (0 to infinity) in ICR mouse at 20 mg/kg, po measured after 0.083 to 48 hrs by LC-MS/MS analysis; assay type: ADME, organism-based; design: route oral, time upper 48 hrs, time lower 0.083 hrs, dose 20 mg/kg; conditions: in vivo
[14] = MRT (0 to infinity) in ICR mouse at 20 mg/kg, po measured after 0.083 to 48 hrs by LC-MS/MS analysis; assay type: ADME, organism-based; conditions: in vivo, time 0.083-48 hrs
MV4-11 [15] = test: Antitumor activity against human MV4-11 cells xenografted in mouse assessed as inhibition of tumor growth by measuring T/C ratio at 30 mg/kg, po dosed 5 days/week for 3 weeks measured twice every week; assay type: functional
[16] = target: T2, Serine/threonine-protein kinase Chk1 (Homo sapiens) (UniProt O14757); test: Inhibition of CHK1 in human HT-29 cells assessed as […] residue at 40 nM incubated for 24 hrs by Western blot analysis; assay type: cell-based
T2 sequence (whole entry): T1 sequence (O14757 whole entry)

[17] = target: T2, Serine/threonine-protein kinase Chk1 (Homo sapiens); test: Inhibition of CHK1 in human HT-29 cells assessed as increase in phosphorylation at S345 residue at 40 nM incubated for 24 hrs by Western blot analysis; assay type: cell-based
HT-29 [18] = test: Induction of gamma-H2A.X in human HT-29 cells at 40 nM incubated for 24 hrs by Western blot analysis; assay type: functional, cell-based
HT-29 [19] = test: Antitumor activity against human HT-29 cells xenografted in mouse assessed as reduction in tumor growth by measuring T/C ratio at 100 mg/kg, iv dosed once a week for 22 days measured twice every week; assay type: functional; conditions: time 22 day
Mus musculus [20] = test: Induction of S296 phosphorylation in tumor of mouse xenografted with human HT-29 cells at 100 mg/kg, iv dosed once a week for 22 days by Western blot analysis; assay type: functional, organism-based; conditions: time 22.0 day
Mus musculus [21] = test: Induction of S345 phosphorylation in tumor of mouse xenografted with human HT-29 cells at 100 mg/kg, iv dosed once a week for 22 days by Western blot analysis; assay type: functional, organism-based; conditions: time 22.0 day

Compound	IC50 [4] [µM]	IC50 (MV4-11 [5]) [µM]	IC50 (Z-138) [µM]	inhibition at 10 µM (hERG (KCNH2)) [%]	half-life [9] [h]	Tmax [10] [h]	Cmax [11] [ng/mL]	AUC(0-t) [12] [ng·h/mL]	AUC(0-inf) [13] [ng·h/mL]	MRT inf [14] [h]	other results
N#Cc1ccc(Nc2ncc(C(F)(F)F)c(N[C@H]3CC[C@H](N)CC3)n2)cn1	0.0329	0.05	0.68	47.9							MRT inf [1]: 3.37 h; AUC(0-t) [2]: 1430 ng·h/mL; AUC(0-inf) [3]: 1440 ng·h/mL; half-life [6]: 2.88 h; Tmax [7]: 1.42 h; Cmax [8]: 371 ng/mL
CS(=O)(=O)CCNCCCNc1nc(Nc2ccc(C#N)nc2)ncc1C(F)(F)F	0.0243	0.25	0.63	58.5	2.38	0.25	1690	2520	2710	2.42	
CNCCCNc1nc(Nc2ccc(C#N)nc2)ncc1C(F)(F)F	0.0129	0.24	0.3	73.3	4.12	0.5	1530	6600	6700	5.62	T/C (MV4-11 [15]): 35.36%
CNc1nc(Nc2cnc(C#N)c(O[C@@H]3CCCNC3)c2)ncc1-c1cnn(C(F)(F)F)c1	0.0068				0.89	2	93	126	130	2.58	
N#Cc1ccc(Nc2ncc(C(F)(F)F)c(NCCCN)n2)cn1	0.0209	0.14	0.46	43.4	0.76	0.5	2860	3300	4100	1.3	T/C (MV4-11 [15]): 29.94%
CNc1nc(Nc2cnc(C#N)c(N[C@H]3CC[C@H](N)CC3)c2)ncc1C(F)(F)F	0.0331	0.07	0.96	5.3							
CNC(C)CCNc1nc(Nc2ccc(C#N)nc2)ncc1C(F)(F)F (stereo not drawn)	0.0163	0.15	0.35	35.5							
CNc1nc(Nc2cnc(C#N)c(N[C@@H]3CCNC3)c2)ncc1C(F)(F)F	0.0033	0.06	0.17	17.9	1.4	0.33	1330	1120	1150	1.17	T/C (MV4-11 [15]): 65.78%
N#Cc1ccc(Nc2ncc(C(F)(F)F)c(N[C@H]3CCCNC3)n2)cn1	0.0283	0.27	0.16	74.6							
CNc1nc(Nc2cnc(C#N)c(O[C@@H]3CCCNC3)c2)ncc1C(F)(F)F	0.0076	0.33	1.39	91.6	0.7	1.08	127	166	168	1.57	
Nc1ccn([C@@H]2O[C@H](CO)[C@@H](O)C2(F)F)c(=O)n1 [GEMCITABINE]											Activity [16]: Active; Activity [17]: Active; Activity (HT-29 [18]): Active; T/C (HT-29 [19]): 57.7%; Activity (Mus musculus [20]): Active; Activity (Mus musculus [21]): Active
